Source: patent publication US6995175B2, “Chemical derivatives and their application as antitelomerase agent” (Aventis Pharma S.A., priority 2001, dated 2006)
Where a name gives a salt, the structure may show the parent alone.

What was measured:
[1] = system: G-quadruplex oligonucleotide GGGTTAGGGTTAGGGTTAGGG (3.5 repeats of the human telomeric unit); assay: G-quadruplex stabilization, fluorescence Tm (FAM+DABCYL oligonucleotide); assay type: binding; details: increase in Tm vs reference without product (44° C. in LiCl buffer), 0.2 μM oligonucleotide, 0.1 M LiCl, 10 mM cacodylate pH 7.6
Description: The G-quadruplex stabilizing activity may be determined by a method using the formation of a complex with fluorescein of which the experimental protocol is described below.
All the oligonucleotides, modified or otherwise, were synthesized by Eurogentec S A, Seraing, Belgium. The oligonucleotide FAM+DABCYL carries the catalogue reference OL-0371-0802. It has the sequence: […] corresponding to 3.5 repeats of the human telomeric unit (strand rich in G). The fluorescein is attached to the 5′ end, the DABCYL to the 3′ end, by the chemical arms described by Eurogentec. The concentration of the samples is checked by spectrophotometry, recording the absorbance spectrum between 220 and 700 nm and using the molar extinction coefficient provided by the supplier.
All the experiments were carried out in a 10 mM sodium cacodylate buffer pH 7.6 containing 0.1 M lithium chloride (or sodium chloride). The absence of fluorescent contamination in the buffer was checked beforehand. The fluorescent oligonucleotide is added at the final concentration of 0.2 μM.
All the measurements of fluorescence were carried out on a Spex Fluorolog DM1B apparatus, using an excitation line width of 1.8 nm and an emission line width of 4.5 nm. The samples are placed in a microquartz cuvette of 0.2×1 cm. The temperature of the sample is controlled by an external water bath. The oligonucleotide alone was analyzed at 20, 30, 40, 50, 60, 70 and 80° C. The emission spectra are recorded using an excitation wavelength of 470 nm. The excitation spectra are recorded using either 515 nm or 588 nm as emission wavelength. The spectra are corrected for the response of the instrument by reference curves. A high extinction (80–90%) of the fluorescence of fluorescein at room temperature is observed, in agreement with an intramolecular folding of the oligonucleotide at 20° C. in the form of a G-quadruplex, which induces juxtaposition of its 5′ and 3′ ends which are respectively linked to fluorescein and to DABCYL. This juxtaposition causes an already-described phenomenon of extinction of fluorescence which is used for “Molecular Beacons”.
An oligonucleotide stock solution at the strand concentration of 0.2 μM in 0.1 M LiCl, 10 mM cacodylate buffer, pH 7.6, is prepared beforehand, heated briefly at 90° C. and slowly cooled to 20° C., and then distributed in aliquots of 600 μl in the fluorescence cuvettes. […] The samples are then allowed to incubate for at least 1 hour at 20° C. before each measurement. The use of longer incubation times (up to 24 hours) has no influence on the result obtained.
Each experiment allows the measurement of only one sample. The latter is first incubated at an initial temperature of 20° C., heated to 80° C. over 38 minutes, left for 5 minutes at 80° C. and then cooled to 20° C. over 62 minutes. During this time, the fluorescence is measured simultaneously at two emission wavelengths (515 nm and 588 nm) using 470 nm as excitation wavelength. A measurement is carried out every 30 seconds. The temperature of the water bath is recorded in parallel, and the fluorescence profile as a function of the temperature is reconstituted from these values. The fluorescence profiles are then normalized between 20° C. and 80° C., and the temperature for which the intensity of emission at 515 nm is the mean of those at high and low temperature is called Tm. Under these conditions, the Tm of the reference sample without addition of product is 44° C. in a lithium chloride buffer. This temperature is increased to more than 55° C. in a sodium chloride buffer. The addition of a G-quadruplex stabilizing compound induces an increase in the Tm. This increase is judged to be significant if it is greater than 3°.

[2] = system: human telomerase (HL60 cell extract); assay: Inhibition of telomerase, TRAP test (TS extension and PCR with HL60 extract); assay type: biochemical; details: telomerase extract from HL60 cells
Experimental: The extract is stored at -80° C.

SMILES	IC50 [2]	G4 Tm (G4 stabilization differential in ° C., product tested at 1 µM) [1]
Cc1cc(N(C)C)c2cc(NC(=O)c3ccc(C(=O)Nc4ccc5nc(C)cc(N(C)C)c5c4)s3)ccc2n1 [Example 2, bis[(4-dimethylamino-2-methylquinolin-6-yl)amido]-2,5-thiophenedicarboxylic acid]	900 nM	10.5 °C
Cc1cc(N(C)C)c2cc(NC(=O)Nc3ccc(NC(=O)Nc4ccc5nc(C)cc(N(C)C)c5c4)cc3)ccc2n1 [Example 9, 1-(4-dimethylamino-2-methylquinolin-6-yl)-3-{4-[3-(4-dimethylamino-2-methylquinolin-6-yl)ureido]phenyl}urea]	800 nM	11.5 °C
Cc1cc(N)c2cc(NC(=O)c3ccc(C(=O)Nc4ccc5nc(C)cc(N)c5c4)s3)ccc2n1 [Example 3, bis[(4-amino-2-methylquinolin-6-yl)amido]-2,5-thiophenedicarboxylic acid]	950 nM	1.7 °C
COc1cc(C)nc2ccc(NC(=O)Nc3cccc(NC(=O)Nc4ccc5nc(C)cc(OC)c5c4)c3)cc12 [Example 8, 1-(4-methoxy-2-methylquinolin-6-yl)-3-{3-[3-(4-methoxy-2-methylquinolin-6-yl)ureido]phenyl}urea]	750 nM	2.5 °C
Cc1cc(N)c2cc(NC(=O)c3ccc(C(=O)Nc4ccc5nc(C)cc(N)c5c4)nc3)ccc2n1.Cl [Example 17, bis[(4-amino-2-methylquinolin-6-yl)amido]-2,5-pyridinedicarboxylic acid Hydrochloride]	300 nM	5.5 °C
CSc1c(Cl)nc(Nc2ccc3nc(C)cc(N)c3c2)nc1Nc1ccc2nc(C)cc(N)c2c1 [Example 16, N,N′-bis(4-amino-2-methyl-6-quinolyl)-2,4-diamino-6-chloro-5-methylsulfanylpyrimidine]	550 nM	5 °C
Cc1cc(N(C)C)c2cc(NC(=O)/C=C/C(=O)Nc3ccc4nc(C)cc(N(C)C)c4c3)ccc2n1 [Example 18, N,N′-bis(4-dimethylamino-2-methylquinolin-6-yl)but-2-enediamide]	1200 nM	9 °C
Cc1cc(N)c2cc(NC(=O)c3cccc(C(=O)Nc4ccc5nc(C)cc(N)c5c4)c3)ccc2n1 [Example 6, N,N′-bis(4-amino-2-methylquinolin-6-yl)-isophthalamide]	310 nM	16 °C
COc1cc(C)nc2ccc(NC(=O)c3ccc(C(=O)Nc4ccc5nc(C)cc(OC)c5c4)s3)cc12 [Example 1, bis[(4-methoxy-2-methylquinolin-6-yl)amido]-2,5-thiophenedicarboxylic acid]	1700 nM	2.5 °C
Cc1cc(N(C)C)c2cc(NC(=O)c3ccc(C(=O)Nc4ccc5nc(C)cc(N(C)C)c5c4)cc3)ccc2n1 [Example 7, N,N′-bis(4-dimethylamino-2-methylquinolin-6-yl)-terephthalamide]	1500 nM	2 °C

Now from value to molecule, other results behind:

IC50 [2]	SMILES	G4 Tm (G4 stabilization differential in ° C., product tested at 1 µM) [1]
500 nM	Cc1cc(N(C)C)c2cc(NC(=O)c3cccc(C(=O)Nc4ccc5nc(C)cc(N(C)C)c5c4)n3)ccc2n1 [Example 24, bis-[(4-dimethylamino-2-methylquinolin-6-yl)-amido]-2,6-pyridinedicarboxylic acid hydrochloride]	15.6 °C
2900 nM	Cc1cc(N(C)C)c2cc(NCc3ccc(C(=O)Nc4ccc5nc(C)cc(N(C)C)c5c4)nc3)ccc2n1 [Example 22, [(4-dimethylamino-2-methylquinolin-6-yl)-amido]-5-[(4-dimethylamino-2-methylquinolin-6-ylamino)methyl]pyridine-2-carboxylic acid Hydrochloride]	4 °C
600 nM	Cc1cc(N(C)C)c2cc(NC(=O)c3ccc(C(=O)Nc4ccc5nc(C)cc(N(C)C)c5c4)nc3)ccc2n1 [Example 19, bis[(4-dimethylamino-2-methylquinolin-6-yl)-amido]-2,5-pyridinedicarboxylic acid]	16 °C
1300 nM	Cc1cc(N(C)C)c2cc(NC(=O)Cc3ccc(CC(=O)Nc4ccc5nc(C)cc(N(C)C)c5c4)cc3)ccc2n1 [Example 21, N,N′-bis(4-dimethylamino-2-methylquinolin-6-yl)-1,4-phenylenediacetamide]	3 °C
1100 nM	Cc1cc(N(C)C)c2cc(NC(=O)c3ccnc(C(=O)Nc4ccc5nc(C)cc(N(C)C)c5c4)c3)ccc2n1 [Example 20, bis[(4-dimethylamino-2-methylquinolin-6-yl)-amido]-2,4-pyridinedicarboxylic acid]	–
200 nM	Cc1cc(N)c2cc(NC(=O)c3cccc(C(=O)Nc4ccc5nc(C)cc(N)c5c4)n3)ccc2n1 [Example 23, bis[(4-amino-2-methylquinolin-6-yl)-amido]-2,6-pyridinedicarboxylic acid hydrochloride]	23 °C
